The record followed here is US10688131B2, “Peptides and scaffolds for use in immunotherapy against head and neck squamous cell carcinoma and other cancers” (Immatics Biotechnologies GmbH, priority 2016, dated 2020).

For assay [1], the system named is CD8+ T cells. Description: In vitro T-cell priming assay with aAPCs loaded with peptide/MHC complexes and anti-CD28 antibody, pMHC multimer readout. The format is cell-based, human. Conditions: for Wells positive [%]: percentage of positive wells among evaluable, HLA-A*02 restricted peptides; for Donors: percentage of positive donors; for Donors / Wells: HLA-A*02 healthy donors, three stimulation cycles; for Wells: percentage of positive wells. From the text: In order to obtain information regarding the immunogenicity of the TUMAPs of the present invention, the inventors performed investigations using an in vitro T-cell priming assay based on repeated stimulations of CD8+ T cells with artificial antigen presenting cells (aAPCs) loaded with peptide/MHC complexes and anti-CD28 antibody.
In order to perform in vitro stimulations by artificial antigen presenting cells loaded with peptide-MHC complex (pMHC) and anti-CD28 antibody, the inventors first isolated CD8+ T cells from fresh HLA-A*02 leukapheresis products via positive selection using CD8 microbeads (Miltenyi Biotech, Bergisch-Gladbach, Germany) of healthy donors obtained from the University clinics Mannheim, Germany, after informed consent.
PBMCs and isolated CD8+ lymphocytes were incubated in T-cell medium (TCM) until use consisting of RPMI-Glutamax (Invitrogen, Karlsruhe, Germany) supplemented with 10% heat inactivated human AB serum (PAN-Biotech, Aidenbach, Germany), 100 U/ml Penicillin/100 μg/ml Streptomycin (Cambrex, Cologne, Germany), 1 mM sodium pyruvate (CC Pro, Oberdorla, Germany), 20 μg/ml Gentamycin (Cambrex). 2.5 ng/ml IL-7 (PromoCell, Heidelberg, Germany) and 10 U/ml IL-2 (Novartis Pharma, Nürnberg, Germany) were also added to the TCM at this step.
Generation of pMHC/anti-CD28 coated beads, T-cell stimulations and readout was performed in a highly defined in vitro system using four different pMHC molecules per stimulation condition and 8 different pMHC molecules per readout condition.
The purified co-stimulatory mouse IgG2a anti human CD28 Ab 9.3 (Jung et al., 1987) was chemically biotinylated using Sulfo-N-hydroxysuccinimidobiotin as recommended by the manufacturer (Perbio, Bonn, Germany). Beads used were 5.6 μm diameter streptavidin coated polystyrene particles (Bangs Laboratories, Illinois, USA).
pMHC used for positive and negative control stimulations were A*0201/MLA-001 (peptide […] (SEQ ID NO. 157) from modified Melan-A/MART-1) and A*0201/DDX5-001 ([…] from DDX5, SEQ ID NO. 158), respectively.
800.000 beads/200 μl were coated in 96-well plates in the presence of 4×12.5 ng different biotin-pMHC, washed and 600 ng biotin anti-CD28 were added subsequently in a volume of 200 μl. Stimulations were initiated in 96-well plates by co-incubating 1×10^6 CD8+ T cells with 2×10^5 washed coated beads in 200 μl TCM supplemented with 5 ng/ml IL-12 (PromoCell) for 3 days at 37° C. Half of the medium was then exchanged by fresh TCM supplemented with 80 U/ml IL-2 and incubating was continued for 4 days at 37° C. This stimulation cycle was performed for a total of three times. For the pMHC multimer readout using 8 different pMHC molecules per condition, a two-dimensional combinatorial coding approach was used as previously described (Andersen et al., 2012) with minor modifications encompassing coupling to 5 different fluorochromes. Finally, multimeric analyses were performed by staining the cells with Live/dead near IR dye (Invitrogen, Karlsruhe, Germany), CD8-FITC antibody clone SK1 (BD, Heidelberg, Germany) and fluorescent pMHC multimers. For analysis, a BD LSRII SORP cytometer equipped with appropriate lasers and filters was used. Peptide specific cells were calculated as percentage of total CD8+ cells. Evaluation of multimeric analysis was done using the FlowJo software (Tree Star, Oregon, USA). In vitro priming of specific multimer+CD8+ lymphocytes was detected by comparing to negative control stimulations.
Exemplary flow cytometry results after TUMAP-specific multimer staining for 2 peptides of the invention are shown in FIGS. 3A and 3B together with corresponding negative controls. Additional exemplary flow cytometry results after TUMAP-specific multimer staining for 3 peptides of the invention are shown in FIGS. 4A-4C together with corresponding negative controls.

Assay [2] addresses HLA-A*02:01 (Homo sapiens, UniProt P04439, D140Y/D185E/D98H/E176V/E277Q/G131W/G231S/I119V/I121R/I166T/I218V/L300P/L318F/N151K/N90K/P208A/P217A/Q86G/Q94H/R138H/R169H/T345S). The assay can be described thus: MHC binding assay: UV-ligand exchange with β2m ELISA. Conditions: binding of HLA-class I restricted peptides to HLA-A*02:01. From the text: Candidate peptides for T cell based therapies according to the present invention were further tested for their MHC binding capacity (affinity). The individual peptide-MHC complexes were produced by UV-ligand exchange, where a UV-sensitive peptide is cleaved upon UV-irradiation, and exchanged with the peptide of interest as analyzed. Only peptide candidates that can effectively bind and stabilize the peptide-receptive MHC molecules prevent dissociation of the MHC complexes. To determine the yield of the exchange reaction, an ELISA was performed based on the detection of the light chain (β2m) of stabilized MHC complexes. The assay was performed as generally described in Rodenko et al. (Rodenko et al., 2006).
96 well MAXISorp plates (NUNC) were coated over night with 2 ug/ml streptavidin in PBS at room temperature, washed 4× and blocked for 1 h at 37° C. in 2% BSA containing blocking buffer. Refolded HLA-A*02:01/MLA-001 monomers served as standards, covering the range of 15-500 ng/ml. Peptide-MHC monomers of the UV-exchange reaction were diluted 100-fold in blocking buffer. Samples were incubated for 1 h at 37° C., washed four times, incubated with 2 ug/ml HRP conjugated anti-β2m for 1 h at 37° C., washed again and detected with TMB solution that is stopped with […]. Absorption was measured at 450 nm. Candidate peptides that show a high exchange yield (preferably higher than 50%, most preferred higher than 75%) are generally preferred for a generation and production of antibodies or fragments thereof, and/or T cell receptors or fragments thereof, as they show sufficient avidity to the MHC molecules and prevent dissociation of the MHC complexes.
For orientation: In an ELISA, binding on a coated surface is turned into a signal by an enzyme label.

For the substance “1 (GLAGGFGGPGFPV; listed as Homo sapiens) [compound 1]”, in assay [1], the “Wells positive [%]” value is given as “+ (<20% = +)”. Further, the “Peptide exchange (MHC class I binding score, peptide exchange yield)” value (shortened to “Peptide exchange”) in assay [2] is reported as “++++ (>75% = ++++)”.

“3 (SLYGLGGSKRISI; listed as Homo sapiens) [compound 3]”: in assay [1], the “Wells positive [%]” value is recorded as “+ (<20% = +)”. Moreover, in assay [2], the “Peptide exchange” value is “+++ (>50 = +++)”. As to “74 (SLTSFLISL; listed as Homo sapiens) [compound 74]”, in assay [2], the “Peptide exchange” value was “+++ (>50 = +++)”. On the same count and under the same terms, in the case of “75 (ALASAPTSV; listed as Homo sapiens) [compound 75]” it was “++++ (>75% = ++++)”; in that of “76 (ILFDEVLTFA; listed as Homo sapiens) [compound 76]”, “++++ (>75% = ++++)”; in that of “77 (SLRAFLMPI; listed as Homo sapiens) [compound 77]”, “++ (>20% = ++)”. In the case of “78 (VLYGDVEEL; listed as Homo sapiens) [compound 78]”, the “Peptide exchange” value in assay [2] is on record as “+++ (>50 = +++)”. Take “79 (GLHQDFPSVVL; listed as Homo sapiens) [compound 79]”: the “Peptide exchange” value in assay [2] is “+++ (>50 = +++)”. For “80 (GLYGIKDDVFL; listed as Homo sapiens) [compound 80]”, the “Peptide exchange” value in assay [2] was “++++ (>75% = ++++)”.

For “81 (VLAENPDIFAV; listed as Homo sapiens) [compound 81]”, the “Peptide exchange” value in assay [2] is listed as “+++ (>50 = +++)”. On the same count and under the same terms, as for “83 (QLLQYVYNL; listed as Homo sapiens) [compound 83]”, the entry is “++++ (>75% = ++++)”; as for “84 (ALMAGCIQEA; listed as Homo sapiens) [compound 84]”, “++++ (>75% = ++++)”; as for “85 (QLIEKITQV; listed as Homo sapiens) [compound 85]”, “+++ (>50 = +++)”.

For “86 (SLQERQVFL; listed as Homo sapiens) [compound 86]”, the “Peptide exchange” value in assay [2] was “+++ (>50 = +++)”.

With “87 (ALPEPSPAA; listed as Homo sapiens) [compound 87]”, the “Peptide exchange” value in assay [2] is “+++ (>50 = +++)”. The same measure, in the same setting: in the case of “88 (LMAPAPSTV; listed as Homo sapiens) [compound 88]” it was “+++ (>50 = +++)”; in that of “89 (VLDEGLTSV; listed as Homo sapiens) [compound 89]”, “++++ (>75% = ++++)”.

As for “90 (TLNDGVVVQV; listed as Homo sapiens) [compound 90]”, the “Peptide exchange” value in assay [2] is “++++ (>75% = ++++)”. Still for that read-out and setting: in the case of “91 (MLFENMGAYTV; listed as Homo sapiens) [compound 91]” it was “++++ (>75% = ++++)”. In the case of “98 (SLYKGLLSV; listed as Homo sapiens) [compound 98]”, in assay [1], the Donors result was “++++ (>=70% = ++++)” and the Wells result is recorded as “++ (20%-49% = ++)”. Regarding “101 (GLLPSAESIKL; listed as Homo sapiens) [compound 101]”, in assay [1], the Donors entry was “++++ (>=70% = ++++)” and the Wells result was “+ (<20% = +)”.

With “105 (STYGGGLSV; listed as Homo sapiens) [compound 105]”, in assay [1], the Donors entry is recorded as “++++ (>=70% = ++++)” and the Wells result is “+ (<20% = +)”. For “108 (SLYNLGGSKRISI; listed as Homo sapiens) [compound 108]”, in assay [1], the Donors result is “++++ (>=70% = ++++)” and the Wells result was “+ (<20% = +)”. For the substance “109 (KIQEILTQV; listed as Homo sapiens) [compound 109]”, in assay [1], the Donors entry was “+++ (50%-69% = +++)” and the Wells result was “+ (<20% = +)”. Turning to “113 (NLMASQPQL; listed as Homo sapiens) [compound 113]”, in assay [1], the Donors entry is recorded as “++++ (>=70% = ++++)” and the Wells result is “+++ (50%-69% = +++)”. On to “114 (VLVPYEPPQV; listed as Homo sapiens) [compound 114]”, for which, in assay [1], the Donors entry is “++++ (>=70% = ++++)” and the Wells entry is on record as “+ (<20% = +)”. For “118 (TLLQEQGTKTV; listed as Homo sapiens) [compound 118]”, in that order: “++ (20%-49% = ++)” and “+ (<20% = +)”.

For the substance “123 (LLSGDLIFL; listed as Homo sapiens) [compound 123]”, in assay [1], the Donors result is recorded as “++++ (>=70% = ++++)” and the Wells result is “++ (20%-49% = ++)”. As to “127 (SLFGKKYIL; listed as Homo sapiens) [compound 127]”, in assay [1], the Donors result is “++++ (>=70% = ++++)” and the Wells result is given as “++ (20%-49% = ++)”. Regarding “135 (GLFSQHFNL; listed as Homo sapiens) [compound 135]”, in assay [1], the Donors result is listed as “++ (20%-49% = ++)” and the Wells result is given as “+ (<20% = +)”. With “137 (GLAPFLLNAV; listed as Homo sapiens) [compound 137]”, in assay [1], the Donors result is recorded as “++++ (>=70% = ++++)” and the Wells result is “+ (<20% = +)”. Taken in the same sequence, the figures for “143 (YVYQNNIYL; listed as Homo sapiens) [compound 143]” were “++ (20%-49% = ++)” and “+ (<20% = +)”.

Turning to “145 (LLYGKYVSV; listed as Homo sapiens) [compound 145]”, in assay [1], the Donors entry is reported as “++++ (>=70% = ++++)” and the Wells result is “++ (20%-49% = ++)”.

With “147 (ILMDPSPEYA; listed as Homo sapiens) [compound 147]”, in assay [1], the Donors result is recorded as “++++ (>=70% = ++++)” and the Wells entry is recorded as “+++ (50%-69% = +++)”.

As to “150 (ILAEEPIYIRV; listed as Homo sapiens) [compound 150]”, in assay [1], the Donors entry is “++++ (>=70% = ++++)” and the Wells entry is recorded as “+++ (50%-69% = +++)”.

Take “154 (KMWEELPEVV; listed as Homo sapiens) [compound 154]”: in assay [1], the Donors entry is “++++ (>=70% = ++++)” and the Wells result is listed as “+ (<20% = +)”.
